Results published in patent publication US8008329B2 (Dong Wha Pharmaceutical Co., Ltd., priority 2008, dated 2011).
Marks after values point to notes of the source that are not given here.

Tested on: osteoclast differentiation
Experiment: Osteoclast differentiation in co-culture of mouse bone marrow cells and ST2 cells, TRAP staining (Examples 8-9)
Format: cell-based
Conditions: for % number of osteoclast (vs. solvent control group): 0.1 μM each, day 7; for activity at 0.1 µM: Mus musculus, Osteoclast, 168 h, Individual treatment (compounds), day 7, read-out: % number of osteoclast (vs. solvent control group)
Outline: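 Readout was TRAP-positive multinucleated (≥6 nuclei) cells on day 7, reported as % of 0.1% DMSO control, mean±SD of 4 wells. Cells were mouse (male ddY) bone marrow plus ST2 co-cultures driven by 10^−8 M vitamin D3/dexamethasone. Benzamidines, alendronic acid or risedronic acid were added at 0.1 μM alone or combined, with media renewed days 3 and 5.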

[1] = Combination treatment (alendronic acid + compounds)
[2] = Combination treatment (risedronic acid + compounds)

Structure (SMILES) | % number of osteoclast (vs. solvent control group) [1] | % number of osteoclast (vs. solvent control group) [2] | activity at 0.1 µM
CCN(CC)CCc1sc(C)nc1-c1ccc(OCCCCCOc2ccc(C(=N)NO)cc2)cc1 [Compound 224, N-hydroxy-4-(5-{4-[5-(2-diethylamino-ethyl)-2-methyl-thiazol-4-yl]-phenoxy}-pentyloxy)-benzamidine] | 53 ± 2.9^ab % | 58 ± 10.8% | 77 ± 8.4%
Cc1nc(-c2ccc(OCCCCCOc3ccc(C(=N)NO)cc3)cc2)c(CCN(CCO)CCO)s1 [Compound 225, N-hydroxy-4-{5-[4-(5-{2-[bis-(2-hydroxy-ethyl)-amino]-ethyl}-2-methyl-thiazol-4-yl)-phenoxy]-pentyloxy}-benzamidine] | 50 ± 4.8^ab % | 48 ± 4.9^ac % | 70 ± 7.1%
Cc1nc(-c2ccc(OCCCCCOc3ccc(C(=N)NO)cc3)cc2)c(CCN2CC(C)OC(C)C2)s1 (stereo not drawn) [Compound 227, N-hydroxy-4-[5-(4-{5-[2-(2,6-dimethyl-morpholin-4-yl)-ethyl]-2-methyl-thiazol-4-yl}-phenoxy)-pentyloxy]-benzamidine] | 24 ± 5.0^ab % | 17 ± 4.4^ac % | 42 ± 4.6%
Cc1nc(-c2ccc(OCCCCCOc3ccc(C(=N)NO)cc3)cc2)c(CCN2CCSCC2)s1 [Compound 228, N-hydroxy-4-(5-{4-[2-methyl-5-(2-thiomorpholin-4-yl-ethyl)-thiazol-4-yl]-phenoxy}-pentyloxy)-benzamidine] | 31 ± 4.8^ab % | 20 ± 5.8^ac % | 49 ± 3.5%
Cc1nc(-c2ccc(OCCCCCOc3ccc(C(=N)NO)cc3)cc2)c(CCN2CCOCC2)s1 [Compound 231, N-hydroxy-4-(5-{4-[2-methyl-5-(2-morpholin-4-yl-ethyl)-thiazol-4-yl]-phenoxy}-pentyloxy)-benzamidine] | 50 ± 9.8^b % | 40 ± 3.1^ac % | 82 ± 14.6%
Cc1nc(-c2ccc(OCCCCCOc3ccc(C(=N)NO)cc3)cc2)c(CCN2CCN(C)CC2)s1 [Compound 232, N-hydroxy-4-[5-(4-{2-methyl-5-[2-(4-methyl-piperazin-1-yl)-ethyl]-thiazol-4-yl}-phenoxy)-pentyloxy]-benzamidine] | 39 ± 5.2^b % | 37 ± 4.9^c % | 47 ± 9.4%
Cc1nc(-c2ccc(OCCCCCOc3ccc(C(=N)NO)cc3)cc2)c(CCNC(C)(C)C)s1 [Compound 234, N-hydroxy-4-(5-{4-[5-(2-tert-butylamino-ethyl)-2-methyl-thiazol-4-yl]-phenoxy}-pentyloxy)-benzamidine] | 30 ± 6.1^b % | 22 ± 4.0^ac % | 44 ± 7.5%
Cc1nc(-c2ccc(OCCCCCOc3ccc(C(=N)NO)cc3)cc2)c(CCNCC(C)C)s1 [Compound 235, N-hydroxy-4-(5-{4-[5-(2-isobutylamino-ethyl)-2-methyl-thiazol-4-yl]-phenoxy}-pentyloxy)-benzamidine] | 33 ± 1.8% | 25 ± 4.4^c % | 38 ± 7.6%
CC(C)c1nc(-c2ccc(OCCCCCOc3ccc(C(=N)NO)cc3)cc2)c(CCN2CCN(C)CC2)s1 [Compound 241, N-hydroxy-4-[5-(4-{2-isopropyl-5-[2-(4-methyl-piperazin-1-yl)-ethyl]-thiazol-4-yl}-phenoxy)-pentyloxy]-benzamidine] | 24 ± 4.6^ab % | 12 ± 1.4^ac % | 61 ± 6.8%
CC(C)c1nc(-c2ccc(OCCCCCOc3ccc(C(=N)NO)cc3)cc2)c(CCn2ccnc2)s1 [Compound 242, N-hydroxy-4-(5-{4-[5-(2-imidazol-1-yl-ethyl)-2-isopropyl-thiazol-4-yl]-phenoxy}-pentyloxy)-benzamidine] | 18 ± 3.5^ab % | 13 ± 2.8^ac % | 58 ± 3.4%
CC(C)c1nc(-c2ccc(OCCCCCOc3ccc(C(=N)NO)cc3)cc2)c(CCNCCN2CCOCC2)s1 [Compound 243, N-hydroxy-4-[5-(4-{2-isopropyl-5-[2-(2-morpholin-4-yl-ethylamino)-ethyl]-thiazol-4-yl}-phenoxy)-pentyloxy]-benzamidine] | 24 ± 7.7^b % | 12 ± 2.3^ac % | 36 ± 4.9%
CC(C)c1nc(-c2ccc(OCCCCCOc3ccc(C(=N)NO)cc3)cc2)c(CCNCCCn2ccnc2)s1 [Compound 244, N-hydroxy-4-[5-(4-{5-[2-(3-imidazol-1-yl-propylamino)-ethyl]-2-isopropyl-thiazol-4-yl}-phenoxy)-pentyloxy]-benzamidine] | 19 ± 3.3^ab % | 11 ± 1.7^ac % | 46 ± 2.9%
CC(C)c1nc(-c2ccc(OCCCCCOc3ccc(C(=N)NO)cc3)cc2)c(CCN2CCSCC2)s1 [Compound 245, N-hydroxy-4-(5-{4-[2-isopropyl-5-(2-thiomorpholin-4-yl-ethyl)-thiazol-4-yl]-phenoxy}-pentyloxy)-benzamidine] | 23 ± 4.9^b % | 16 ± 4.1^ac % | 35 ± 5.7%
CN1CCN(CCc2sc(C3CCCCC3)nc2-c2ccc(OCCCCCOc3ccc(C(=N)NO)cc3)cc2)CC1 [Compound 247, N-hydroxy-4-[5-(4-{2-cyclohexyl-5-[2-(4-methyl-piperazin-1-yl)-ethyl]-thiazol-4-yl}-phenoxy)-pentyloxy]-benzamidine] | 39 ± 3.7^ab % | 17 ± 4.5^ac % | 63 ± 4.2%
N=C(NO)c1ccc(OCCCCCOc2ccc(-c3nc(C4CCCCC4)sc3CCNCCN3CCOCC3)cc2)cc1 [Compound 248, N-hydroxy-4-[5-(4-{2-cyclohexyl-5-[2-(2-morpholin-4-yl-ethylamino)-ethyl]-thiazol-4-yl}-phenoxy)-pentyloxy]-benzamidine] | 33 ± 5.6^b % | 27 ± 4.9^ac % | 49 ± 8.7%
N=C(NO)c1ccc(OCCCCCOc2ccc(-c3nc(C4CCCCC4)sc3CCN3CCSCC3)cc2)cc1 [Compound 249, N-hydroxy-4-(5-{4-[2-cyclohexyl-5-(2-thiomorpholin-4-yl-ethyl)-thiazol-4-yl]-phenoxy}-pentyloxy)-benzamidine] | 24 ± 4.0^ab % | 13 ± 4.8^ac % | 36 ± 4%
